US20190055576A1, “USE OF HERBICIDE-TOLERANT PROTEIN” (BEIJING DABEINONG TECHNOLOGY GROUP CO., LTD., priority 2016, published 2019)

Assays:
[1] = system: wild-type maize plants (CK2); assay: Sulfometuron-methyl tolerance of wild-type maize plants, damage degree; assay type: in vivo; details: 120 g ai/ha
Text: The herbicide tolerance effects of Zm cytoplasmic ALT-1-02 maize plants, Zm chloroplastic ALT-1-02 maize plants, Zm cytoplasmic ALT-2-02 maize plants, Zm chloroplastic ALT-2-02 maize plants, Zm cytoplasmic ALT-3-02 maize plants, Zm chloroplastic ALT-3-02 maize plants and wild-type maize plants on Sulfometuron-methyl were detected (at V3-V4 stage), respectively.
Zm cytoplasmic ALT-1-02 maize plants, Zm chloroplastic ALT-1-02 maize plants, Zm cytoplasmic ALT-2-02 maize plants, Zm chloroplastic ALT-2-02 maize plants, Zm cytoplasmic ALT-3-02 maize plants, Zm chloroplastic ALT-3-02 maize plants and wild-type maize plants were respectively taken and sprayed with Sulfometuron-methyl (120 g ai/ha, 4-fold field concentration) and a blank solvent (water). The damage degree caused by the herbicide was measured for each plant according to the plant growth status 3 days after spraying (3 DAT), 7 days after spraying (7 DAT), 14 days after spraying (14 DAT) and 21 days after spraying (21 DAT), respectively: considering a growth status equivalent to that of the untreated plants as having a damage degree of 0%; considering conditions of leaves being partially chlorotic and yellow but substantially not affecting the plant normal growth as having a damage degree of 50%; and considering the whole plant being purple and dying as having a damage degree of 100%. There were 2 strains in Zm cytoplasmic ALT-1-02 maize plants in total (S13 and S14), 2 strains in Zm chloroplastic ALT-1-02 maize plants in total (S15 and S16), 2 strains in Zm cytoplasmic ALT-2-02 maize plants in total (S17 and S18), 2 strains in Zm chloroplastic ALT-2-02 maize plants in total (S19 and S20), 2 strains in Zm cytoplasmic ALT-3-02 maize plants in total (S21 and S22), 2 strains in Zm chloroplastic ALT-3-02 maize plants in total (S23 and S24), and 1 strain in wild-type maize plants (CK2) in total; and 10-15 plants were selected from each strain and tested.

[2] = system: wild-type Arabidopsis thaliana plants; assay: Herbicide tolerance of wild-type Arabidopsis thaliana plants, resistance classes counted after spraying; assay type: in vivo
Text: T1 transformants were initially selected from the background of untransformed seeds using a glufosinate selection scheme. About 40000 T1 seeds were screened, and 380 T1 positive transformants (PAT gene) were identified with a transformation efficiency of about 0.95%. The plants that were transformed with the recombinant expression vector DBN100632 were Arabidopsis thaliana plants having an ALT-1-01 nucleotide sequence located in the cytoplasm introduced (At cytoplasmic ALT-1-01), and the plants that were transformed with the recombinant expression vector DBN100631 were Arabidopsis thaliana plants having an ALT-1-01 nucleotide sequence located in the chloroplast introduced (At chloroplastic ALT-1-01); the plants that were transformed with the recombinant expression vector DBN100634 were Arabidopsis thaliana plants having an ALT-2-01 nucleotide sequence located in the cytoplasm introduced (At cytoplasmic ALT-2-01), and the plants that were transformed with the recombinant expression vector DBN100633 were Arabidopsis thaliana plants having an ALT-2-01 nucleotide sequence located in the chloroplast introduced (At chloroplastic ALT-2-01); and the plants that were transformed with the recombinant expression vector DBN100636 were Arabidopsis thaliana plants having an ALT-3-01 nucleotide sequence located in the cytoplasm introduced (At cytoplasmic ALT-3-01), and the plants that were transformed with the recombinant expression vector DBN100635 were Arabidopsis thaliana plants having an ALT-3-01 nucleotide sequence located in the chloroplast introduced (At chloroplastic ALT-3-01). The herbicide tolerance effects of At cytoplasmic ALT-1-01 T1 plants, At chloroplastic ALT-1-01 T1 plants, At cytoplasmic ALT-2-01 T1 plants, At chloroplastic ALT-2-01 T1 plants, At cytoplasmic ALT-3-01 T1 plants, At chloroplastic ALT-3-01 T1 plants and wild-type Arabidopsis thaliana plants on Sulfometuron-methyl were detected (14 days after sowing), respectively.
At cytoplasmic ALT-1-01 T1 plants, At chloroplastic ALT-1-01 T1 plants, At cytoplasmic ALT-2-01 T1 plants, At chloroplastic ALT-2-01 T1 plants, At cytoplasmic ALT-3-01 T1 plants, At chloroplastic ALT-3-01 T1 plants and wild-type Arabidopsis thaliana plants were sprayed with Sulfometuron-methyl (30 g ai/ha, 1-fold field concentration) and a blank solvent (water), respectively. Plants were counted for the resistance situations 14 days after spraying: those having a consistent growth status with the blank solvent (water) group after 14 days were classified as highly resistant plants, those having a bolting height less than ½ of that of the blank solvent (water) group after 14 days were classified as moderately resistant plants, those still not capable of bolting after 14 days were classified as poorly resistant plants, and those dead after 14 days were classified as non-resistant plants. Since each Arabidopsis thaliana T1 plant was an independent transformation event, a significant difference in individual T1 responses could be expected at a given dose.
At cytoplasmic ALT-1-01 T1 plants, At chloroplastic ALT-1-01 T1 plants, At cytoplasmic ALT-2-01 T1 plants, At chloroplastic ALT-2-01 T1 plants, At cytoplasmic ALT-3-01 T1 plants, At chloroplastic ALT-3-01 T1 plants and wild-type Arabidopsis thaliana plants in Example 4 were sprayed with iodosulfuron-methyl (10 g ai/ha, 1-fold field concentration), mesosulfuron (14 g ai/ha, 1-fold field concentration) and oxasulfuron (60 g ai/ha, 1-fold field concentration), respectively, in addition to Sulfometuron-methyl (30 g ai/ha, 1-fold field concentration) and the blank solvent (water). […]

[3] = 1-fold field concentration (g ai/ha: Sulfometuron-methyl 30, iodosulfuron-methyl 10, mesosulfuron 14, oxasulfuron 60), 14 days after spraying

## COC(=O)c1ccccc1S(=O)(=O)NC(=O)Nc1nc(C)cc(C)n1 [Sulfometuron-methyl, 2-(4,6-dimethylpyrimidine-2-amino-formamido-sulfonyl) methyl benzoate]
[1]; CK2 (wild-type maize), 4-fold field concentration, 3 days after spraying
  Average damage % 3DAT: 44%
[1]; CK2 (wild-type maize), 4-fold field concentration, 7 days after spraying
  Average damage % 7DAT: 87%
[1]; CK2 (wild-type maize), 4-fold field concentration, 14 days after spraying
  Average damage % 14DAT: 100%
[1]; CK2 (wild-type maize), 4-fold field concentration, 21 days after spraying
  Average damage % 21DAT: 100%
[1]; wild-type maize plants
  herbicide tolerance of wild-type plants: not tolerant
[2]; [3]
  Highly resistant (number of plants with growth status consistent with blank solvent group): 0
  Moderately resistant (number of plants with bolting height less than 1/2 of blank solvent group): 0
  Non-resistant (number of plants dead): 32
  Poorly resistant (number of plants still not capable of bolting): 0
[2]; 30 g ai/ha
  herbicide tolerance of wild-type plants: none of the wild-type Arabidopsis thaliana plants was tolerant
